Assay results taken from publication PMC9620261 (Journal of Medicinal Chemistry, 2022).
pIC50: −log10 of the molar value. Read-outs that look alike come from different tables or passages of the source.

How the values were obtained:
[1] = tested on: D423 (ENO1–/–) glioma cells; experiment: In vitro cytotoxicity of prodrugs, three-cell line assay
[2] = 20% D2O, 31P NMR; for hydrolysis in human serum/plasma: 80% human plasma/serum
[3] = tested on: LN319 (ENO1+/+) glioma cells; experiment: cells; conditions: LN-319, 144 h, read-out: IC50 LN319 (ENO1+/+), 6 day treatment
[4] = tested on: ENO1–/– intracranial orthotopic tumors; conditions: cited from earlier work; for effect on ENO1–/– intracranial orthotopic tumors: mice, 6: 10 mg/kg IV and IP, 5: 150 mg/kg IV and 100 mg/kg IP
[5] = tested on: D423 ENO1 (ENO1-isogenic rescue) glioma cells; experiment: In vitro cytotoxicity of prodrugs, three-cell line assay
NCI-60 cell line panel = format: cell-based; conditions: 10 μM, 24 h
[6] = 80% DMEM, 20% D2O, 31P NMR
[7] = tested on: LN319 (ENO1+/+) glioma cells; conditions: read-out: IC50 LN319 (ENO1+/+); 6 day treatment
[8] = Glioma cell, 144 h, read-out: IC50 D423 (ENO1–/–), 6 day treatment
[9] = Glioma cell, 144 h, read-out: IC50 D423 (ENO1–/–), 1% O2 (hypoxic), 6 days
[10] = read-out: IC50 D423 (ENO1–/–), 6 day treatment

## CC(C)(C)C(=O)OCOP(=O)(NCc1ccccc1)C1CCCN(O)C1=O (stereo not drawn) [20b]
[1]; [8]
  pIC50: 6.61

## CC(C)OC(=O)[C@H](C)NP(=O)(OCOC(=O)C(C)(C)C)C1CCCN(O)C1=O (stereo partly drawn) [20o]
[1]; [8]
  pIC50: 6.69

## CC(C)OC(=O)[C@H](C)N[P@](=O)(CO[C@H](C)Cn1cnc2c(N)ncnc21)Oc1ccccc1 [TAF, tenofovir alafenamide, reference compound]
[2]
  hydrolysis in human serum/plasma: occurs rapidly

## O=C1C(P(=O)(O)O)CCCN1O (stereo not drawn) [compound 5]
[3]
  pIC50: < 3.52
[4]
  effect on ENO1–/– intracranial orthotopic tumors: profound tumor regression

## CC(C)(C)C(=O)OCOP(=O)(OCOC(=O)C(C)(C)C)C1CCCN(O)C1=O (stereo not drawn) [compound 6, POMHEX]
[1]; [9]
  pIC50: 6.70
[1]; Glioma cell, 144 h, read-out: IC50 D423 (ENO1–/–), 21% O2, 6 days
  pIC50: 7.10
[2]
  hydrolysis in human serum/plasma: rapidly hydrolyzed to the mono-POM ester intermediate
[4]; 50 day in vivo evaluation
  drug-related adverse events: no drug-related adverse events were observed
[4]
  effect on ENO1–/– intracranial orthotopic tumors: profound tumor regression

## CC(C)OC(=O)[C@H](C)NP(=O)(Oc1ccccc1)C1CCCN(O)C1=O (stereo partly drawn) [compound 17]
[2]; 80% human plasma, 37 °C
  time prodrug remains stable/intact in human serum/plasma: over 9 h
[2]
  hydrolysis in human serum/plasma: incomplete even after 336 h

## CC(=O)ON1CCCC(P(=O)(NCc2ccccc2)OCc2ccc([N+](=O)[O-])o2)C1=O (stereo not drawn) [compound 24]
[1]; [9]
  pIC50: 6.87

## O=C1C(P(=O)(NCc2ccccc2)Oc2ccc(F)cc2)CCCN1O (stereo not drawn) [compound 26, 4-Fluorophenyl N-Benzyl-P-(1-hydroxy-2-oxopiperidin-3-yl)phosphonamidate]
[1]; [8]
  pIC50: < 4.00
[5]; Glioma cell, 144 h, read-out: IC50 D423 ENO1 (ENO1-tg), 6 day treatment
  pIC50: < 4.00

## CCCCCCCCCCCCCCCCOCCCOP(=O)(O)C1CCCN(O)C1=O (stereo not drawn) [compound 28]
NCI-60 cell line panel
  Average % Growth: Melanoma: 5%

## CC(C)C(=O)ON1CCCC(P2(=O)OCc3ccccc3O2)C1=O (stereo not drawn) [compound 30, 3-(2-Oxido-4H-benzo[d][1,3,2]dioxaphosphinin-2-yl)-2-oxopiperidin-1-yl Isobutyrate]
[6]
  time by which no intact prodrug is present in cell culture media: ≤ 3 h
[2]; 80% human plasma, 37 °C
  time by which no intact prodrug is detectable in human plasma/serum: ≤ 3 h

## Bis(cyanomethyl)(1-hydroxy-2-oxopiperidin-3-yl)phosphonate [compound 29]
[1]; [10]
  pIC50: < 4.00
[2]; 80% human plasma, 37 °C
  t1/2 in human plasma: approximately 10 h
[7]
  pIC50: < 4.00

## Cyanomethyl N-Benzyl-P-(1-hydroxy-2-oxopiperidin-3-yl)phosphonamidate [compound 25]
[1]; [10]
  pIC50: 5.18
[1]; read-out: IC50 in D423 cells, 6 day treatment
  pIC50: ~5.15
[5]; read-out: IC50 D423 ENO1 (ENO1-tg), 6 day treatment
  pIC50: < 4.15
